Results on 14 compounds are retold here after PubChem BioAssay (NCI).

Each structure is given as a SMILES string.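 Step 1: Grow cells in 96-well plates. Step 2: Expose to compound for 48 hours at 5 concentrations. Step 3: Interpolate endpoints linearly; if unreached, use highest concentration. At the TGI there is no net growth.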 A value given as a limit tells only on which side of the number the result lay.

Test systems include MCF7 breast; MDA-MB-231 breast; SF-295 CNS; HOP-62 NSCLC; SF-268 CNS; HCT-15 colon; MOLT-4 leukemia; SK-MEL-5 melanoma; NCI-H522 lung; HCC-2998 colon; EKVX NSCLC; UACC-62 melanoma; OVCAR-3 ovarian; NCI/ADR-RES ovarian; COLO 205 colon; NCI-H23 lung.
Holding throughout (assay): NCI tumour cell line growth inhibition, 48 h

With `CC(C)CC1C(=O)OC(C)(C)OC1=O`, the TGI in the experiment with MCF7 breast, in the experiment with MDA-MB-231 breast, in the experiment on SF-295 CNS, in the experiment with HOP-62 NSCLC, in the experiment with SF-268 CNS and in the experiment on HCT-15 colon was greater than 100 µM throughout. Further, the TGI in the experiment on MOLT-4 leukemia, in the experiment with SK-MEL-5 melanoma, with NCI-H522 lung, in the experiment on HCC-2998 colon, in the experiment with EKVX NSCLC and with UACC-62 melanoma was greater than 100 µM in each case. For the same compound, the TGI in the experiment with OVCAR-3 ovarian, in the experiment with NCI/ADR-RES ovarian, with COLO 205 colon and with NCI-H23 lung was greater than 100 µM throughout.

Consider `COc1ccc(-c2c(C#N)c(N)nc(Sc3ccccc3N)c2C#N)cc1`, for which the TGI was greater than 65.7 µM with MCF7 breast; 48.2 µM with MDA-MB-231 breast; 56.6 µM with SF-295 CNS; 32.6 µM with HOP-62 NSCLC; 28.1 µM in the experiment on SF-268 CNS; greater than 100 µM with HCT-15 colon. Further, the TGI with MOLT-4 leukemia is greater than 100 µM; in the experiment on SK-MEL-5 melanoma, greater than 100 µM; in the experiment on NCI-H522 lung, 62.5 µM; with HCC-2998 colon it was greater than 100 µM; in the experiment on EKVX NSCLC it was greater than 100 µM; with UACC-62 melanoma, greater than 44.5 µM. The TGI in the experiment with OVCAR-3 ovarian was greater than 100 µM; with NCI/ADR-RES ovarian it was 98.4 µM; in the experiment on COLO 205 colon, greater than 100 µM; with NCI-H23 lung it was greater than 100 µM.

Regarding `COc1cccc(-c2nc(N)c(C#N)c3c2CCS(=O)(=O)c2ccc(C)cc2-3)c1`, the TGI with MCF7 breast was greater than 100 µM; with MDA-MB-231 breast, greater than 95.3 µM; with SF-295 CNS, greater than 100 µM; in the experiment on HOP-62 NSCLC it was greater than 100 µM; with SF-268 CNS, greater than 100 µM; with HCT-15 colon, greater than 100 µM. Moreover, the TGI in the experiment on MOLT-4 leukemia is 87.1 µM; with SK-MEL-5 melanoma it was greater than 63.3 µM; in the experiment on NCI-H522 lung it was greater than 25.6 µM; in the experiment with HCC-2998 colon, greater than 100 µM; with EKVX NSCLC, greater than 100 µM; in the experiment on UACC-62 melanoma, greater than 100 µM. Moreover, the TGI in the experiment on OVCAR-3 ovarian was greater than 100 µM; with NCI/ADR-RES ovarian, greater than 88 µM; in the experiment on COLO 205 colon, greater than 56.4 µM; with NCI-H23 lung, greater than 100 µM.

As to `CCc1n[nH]c(=O)n1N`, the TGI in the experiment on MCF7 breast, in the experiment with MDA-MB-231 breast, with SF-295 CNS, with HOP-62 NSCLC, in the experiment on SF-268 CNS and in the experiment with HCT-15 colon was greater than 100 µM throughout. The TGI with MOLT-4 leukemia, in the experiment on SK-MEL-5 melanoma, with NCI-H522 lung, in the experiment on HCC-2998 colon, in the experiment on EKVX NSCLC and with UACC-62 melanoma was greater than 100 µM throughout. Besides, the TGI with OVCAR-3 ovarian, in the experiment on NCI/ADR-RES ovarian, with COLO 205 colon and in the experiment with NCI-H23 lung was greater than 100 µM throughout.

`N#Cc1ccc(N=NN2CCCC2)cc1`: the TGI in the experiment on MCF7 breast, in the experiment with MDA-MB-231 breast, with SF-295 CNS, in the experiment with HOP-62 NSCLC, with SF-268 CNS and with HCT-15 colon was greater than 100 µM throughout. Also, the TGI in the experiment with MOLT-4 leukemia, in the experiment with SK-MEL-5 melanoma, with NCI-H522 lung, in the experiment with HCC-2998 colon, in the experiment on EKVX NSCLC and in the experiment with UACC-62 melanoma was greater than 100 µM each time. The TGI with OVCAR-3 ovarian, in the experiment on NCI/ADR-RES ovarian, in the experiment with COLO 205 colon and in the experiment on NCI-H23 lung was greater than 100 µM throughout.

`CCOC(=O)C1=C(C)N(Cc2ccccc2)C2(O)C=CC(=O)C3C(=O)N(c4ccccc4)C(=O)C132` (centres undefined): the TGI amounted to 12.7 µM in the experiment on MCF7 breast; 12.1 µM with MDA-MB-231 breast; 13.7 µM in the experiment with SF-295 CNS; 5.52 µM in the experiment on HOP-62 NSCLC; 7.81 µM with SF-268 CNS; 5.14 µM in the experiment with HCT-15 colon. In addition, the TGI with MOLT-4 leukemia is 5.54 µM; in the experiment on SK-MEL-5 melanoma it was 12.8 µM; in the experiment with NCI-H522 lung, 3.32 µM; with HCC-2998 colon it was 3.2 µM; in the experiment on EKVX NSCLC it was 22.5 µM; in the experiment with UACC-62 melanoma, 4.01 µM. Besides, the TGI in the experiment with OVCAR-3 ovarian was 6.08 µM; with NCI/ADR-RES ovarian, 10.6 µM; in the experiment on COLO 205 colon, 3.1 µM; in the experiment on NCI-H23 lung, 5.36 µM.

Regarding `O=C(N/N=C\c1ccc([N+](=O)[O-])cc1)Nc1ccc2ccccc2c1`, the TGI in the experiment with MCF7 breast was greater than 100 µM; with MDA-MB-231 breast it was 63.8 µM; in the experiment on SF-295 CNS, greater than 100 µM; in the experiment with HOP-62 NSCLC, 51.2 µM; in the experiment on SF-268 CNS, greater than 100 µM; in the experiment with HCT-15 colon, greater than 100 µM. For the same compound, the TGI in the experiment with MOLT-4 leukemia is greater than 100 µM; with SK-MEL-5 melanoma, greater than 100 µM; with NCI-H522 lung it was 68.4 µM; in the experiment with HCC-2998 colon, 62.9 µM; with EKVX NSCLC it was greater than 100 µM; in the experiment with UACC-62 melanoma it was greater than 100 µM. For the same compound, the TGI was greater than 100 µM with OVCAR-3 ovarian, greater than 100 µM in the experiment with NCI/ADR-RES ovarian, 71.3 µM in the experiment with COLO 205 colon and greater than 100 µM in the experiment on NCI-H23 lung.

With `Cc1cc(O)c(C(O)c2ccccn2)cc1O` (centres undefined), the TGI in the experiment on MCF7 breast is 43.8 µM; with MDA-MB-231 breast, 33.3 µM; with SF-295 CNS it was greater than 100 µM; in the experiment with HOP-62 NSCLC, greater than 100 µM; in the experiment on SF-268 CNS it was greater than 100 µM; with HCT-15 colon it was 34.1 µM. The TGI in the experiment on MOLT-4 leukemia is greater than 100 µM; in the experiment with SK-MEL-5 melanoma, 38.4 µM; in the experiment on NCI-H522 lung, 14.7 µM; in the experiment with HCC-2998 colon, 70.3 µM; with EKVX NSCLC, 36.5 µM; with UACC-62 melanoma, 28.7 µM. Further, the TGI in the experiment on OVCAR-3 ovarian came to 28.6 µM; with NCI/ADR-RES ovarian, 72.6 µM; in the experiment on COLO 205 colon, 23.4 µM; with NCI-H23 lung it was 42.6 µM.

As for `COc1ccc(/C=N/n2c(Cc3ccccc3)n[nH]c2=O)c(OC)c1`, the TGI with MCF7 breast is greater than 100 µM; with MDA-MB-231 breast it was greater than 62.7 µM; in the experiment with SF-295 CNS, greater than 61.4 µM; with HOP-62 NSCLC, greater than 59.8 µM; in the experiment on SF-268 CNS, 47 µM; in the experiment on HCT-15 colon, greater than 100 µM. For the same compound, the TGI in the experiment with MOLT-4 leukemia was greater than 100 µM; with SK-MEL-5 melanoma it was greater than 100 µM; in the experiment with NCI-H522 lung, greater than 100 µM; in the experiment on HCC-2998 colon, greater than 100 µM; in the experiment with EKVX NSCLC it was 99.4 µM; in the experiment on UACC-62 melanoma, greater than 100 µM. Also, the TGI with OVCAR-3 ovarian was greater than 100 µM; with NCI/ADR-RES ovarian it was 86.5 µM; with COLO 205 colon, greater than 31.6 µM; in the experiment on NCI-H23 lung, greater than 65.4 µM.

With `Fc1nc(-c2c3ccccc3c3sc4ccccc4n23)nc(N2CCOCCOCCOCCOCC2)n1`, the TGI in the experiment on MCF7 breast, in the experiment with MDA-MB-231 breast, in the experiment on SF-295 CNS, with HOP-62 NSCLC, in the experiment on SF-268 CNS and with HCT-15 colon was greater than 100 µM each time. Further, the TGI in the experiment on MOLT-4 leukemia, in the experiment on SK-MEL-5 melanoma, in the experiment on NCI-H522 lung, in the experiment with HCC-2998 colon, in the experiment on EKVX NSCLC and with UACC-62 melanoma was greater than 100 µM each time. For the same compound, the TGI with OVCAR-3 ovarian, in the experiment on NCI/ADR-RES ovarian, in the experiment on COLO 205 colon and in the experiment on NCI-H23 lung was greater than 100 µM each time.

For the compound `c1ccc(CSCCC(SCc2ccccc2)SCc2ccccc2)cc1`, the TGI with MCF7 breast, in the experiment on MDA-MB-231 breast, with SF-295 CNS, in the experiment with HOP-62 NSCLC, in the experiment with SF-268 CNS and with HCT-15 colon was greater than 10 µM throughout. For the same compound, the TGI in the experiment with MOLT-4 leukemia, in the experiment with SK-MEL-5 melanoma, with NCI-H522 lung, in the experiment on HCC-2998 colon, with EKVX NSCLC and in the experiment on UACC-62 melanoma was greater than 10 µM throughout. In addition, the TGI in the experiment on OVCAR-3 ovarian, with NCI/ADR-RES ovarian, in the experiment with COLO 205 colon and in the experiment on NCI-H23 lung was greater than 10 µM throughout.

With `C=C(Cl)C(Cl)(CBr)CCCC(C)C` (centres undefined), the TGI is 28.5 µM with MCF7 breast; greater than 69.5 µM in the experiment on MDA-MB-231 breast; 30 µM in the experiment with SF-295 CNS; 27 µM in the experiment on HOP-62 NSCLC; 40.1 µM in the experiment with SF-268 CNS; greater than 85.4 µM with HCT-15 colon. Further, the TGI is greater than 100 µM in the experiment with MOLT-4 leukemia; greater than 100 µM with SK-MEL-5 melanoma; greater than 100 µM with NCI-H522 lung; 34.1 µM in the experiment with HCC-2998 colon; 35 µM with EKVX NSCLC; greater than 100 µM with UACC-62 melanoma. Moreover, the TGI in the experiment on OVCAR-3 ovarian is 12.4 µM; in the experiment with NCI/ADR-RES ovarian, greater than 80.4 µM; with COLO 205 colon it was 34.9 µM; with NCI-H23 lung, greater than 100 µM.

For `CCSc1c2cc(OC)ccc2nc2ccc(OC)cc12`, the TGI was greater than 100 µM with MCF7 breast; 44.6 µM in the experiment on MDA-MB-231 breast; 60.4 µM with SF-295 CNS; 53.9 µM in the experiment with HOP-62 NSCLC; greater than 58.6 µM with SF-268 CNS; greater than 100 µM with HCT-15 colon. For the same compound, the TGI with MOLT-4 leukemia is greater than 34.5 µM; in the experiment with SK-MEL-5 melanoma, 30.3 µM; with NCI-H522 lung it was greater than 48.2 µM; in the experiment on HCC-2998 colon it was 25.5 µM; in the experiment on EKVX NSCLC it was greater than 54 µM; in the experiment with UACC-62 melanoma, 47.8 µM. The TGI with OVCAR-3 ovarian was greater than 61.2 µM; in the experiment with NCI/ADR-RES ovarian, greater than 69.7 µM; with COLO 205 colon, greater than 45.3 µM; in the experiment on NCI-H23 lung it was greater than 86.1 µM.

Consider `CC(C)(CO)CNc1nc(N)nc(Cl)c1C=O`, for which the TGI in the experiment on MCF7 breast is greater than 100 µM; in the experiment on MDA-MB-231 breast, greater than 100 µM; with SF-295 CNS, greater than 100 µM; in the experiment with HOP-62 NSCLC, 46.1 µM; in the experiment with SF-268 CNS it was 42.2 µM; in the experiment with HCT-15 colon, 45 µM. Also, the TGI in the experiment on MOLT-4 leukemia was 59 µM; with SK-MEL-5 melanoma, greater than 100 µM; in the experiment on NCI-H522 lung, 23.5 µM; with HCC-2998 colon it was 21.3 µM; in the experiment on EKVX NSCLC, greater than 100 µM; in the experiment with UACC-62 melanoma, 32.6 µM. Also, the TGI in the experiment with OVCAR-3 ovarian is 62.8 µM; with NCI/ADR-RES ovarian it was greater than 100 µM; in the experiment on COLO 205 colon, 72.2 µM; in the experiment with NCI-H23 lung, greater than 100 µM.
